Key:
Assay in all cases: relative viability (nuclei count vs DMSO), 5 days (fraction); higher = more cells survive
[1] = compound: CS(=O)(=O)c1ccc(-c2cnc(N)c(C(=O)Nc3ccccc3)n2)cc1 [VE-821] + Nc1nc2[nH]cc(CCc3ccc(C(=O)N[C@@H](CCC(=O)O)C(=O)O)cc3)c2c(=O)[nH]1 [Pemetrexed] (partner 0.2 µM)
Procedure, shortened: (§1)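 Relative viability divides the nuclei count in treated wells by that in vehicle wells. Lung cancer cell lines were seeded in 1536-well plates, dosed by pin tool the next day, and fixed and stained after 5 days in one step with final 0.05% Triton X-100, 1% formaldehyde and 1 ug/ml Hoechst. Dosing was a single drug or a fixed anchor-drug dose plus five library-drug doses (not always all listed) in √10 steps, and values are medians of duplicate plates imaged at 4×.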

[2] = compound: CS(=O)(=O)c1ccc(C(=O)Nc2ccc(Cl)c(-c3ccccn3)c2)c(Cl)c1 [Vismodegib] + Nc1ncn([C@H]2C[C@H](O)[C@@H](CO)O2)c(=O)n1 [Decitabine] (partner 2 µM)
Procedure, shortened: as §1

[3] = compound: N#CC[C@H](C1CCCC1)n1cc(-c2ncnc3[nH]ccc23)cn1 [Ruxolitinib] + CS(=O)(=O)CCNCc1ccc(-c2ccc3ncnc(Nc4ccc(OCc5cccc(F)c5)c(Cl)c4)c3c2)o1 [Lapatinib] (partner 2 µM)
Procedure, shortened: as §1

[4] = compound: N#CC[C@H](C1CCCC1)n1cc(-c2ncnc3[nH]ccc23)cn1 [Ruxolitinib] + Cc1nc(NC(=O)N2CCC[C@H]2C(N)=O)sc1-c1ccnc(C(C)(C)C(F)(F)F)c1 [Alpelisib] (partner 2 µM)
Procedure, shortened: as §1

Cell Line: UMC-11
- relative viability ([1]; first compound 0.08 µM): 0.818
- relative viability ([1]; first compound 0.253 µM): 0.718
- relative viability ([1]; first compound 0.8 µM): 0.728
- relative viability ([1]; first compound 2.53 µM): 0.513
- relative viability ([1]; first compound 8 µM): 0.266
- relative viability ([2]; first compound 0.08 µM): 0.623
- relative viability ([2]; first compound 0.253 µM): 0.579
- relative viability ([2]; first compound 0.8 µM): 0.489
- relative viability ([2]; first compound 2.53 µM): 0.457
- relative viability ([2]; first compound 8 µM): 0.53
- relative viability ([3]; first compound 0.08 µM): 1.01
- relative viability ([3]; first compound 0.253 µM): 0.934
- relative viability ([3]; first compound 0.8 µM): 1.23
- relative viability ([3]; first compound 2.53 µM): 0.998
- relative viability ([3]; first compound 8 µM): 1.02
- relative viability ([4]; first compound 0.08 µM): 0.869
- relative viability ([4]; first compound 0.253 µM): 1.02
- relative viability ([4]; first compound 0.8 µM): 1.06
- relative viability ([4]; first compound 2.53 µM): 1.12
- relative viability ([4]; first compound 8 µM): 0.938
